Assays:
Test in all cases: MIC in microtitre plates (Example 10)
Format in all cases: cell-based
Set-up in all cases: unit not given here
Conditions in all cases: microtitre plate, 48 hours at 37° C., ≦20% growth
[1] = system: Pseudomonas aeruginosa CIP A-22 (=PA)
Method: (§1) Determination of the Minimum Inhibitory Concentration (MIC Value) in Microtitre Plates Casein/soymeal peptone broth for preparation of pre-cultures of test bacteria and yeast Bacteria: • Pseudomonas aeruginosa CIP A-22 (=PA) • Escherichia coli NCTC 8196 (=EC) • Staphylococcus aureus ATCC 9144 (=SA) • Candida albicans ATCC 10231 (=CA) The test substances are pre-dissolved in dimethyl sulfoxide (DMSO) and tested in a dilution series of 1:2. Bacteria and yeast are cultured overnight in CASO broth. All the test organism suspensions are adjusted to an organism count of 1-5×10^6 CFU/ml using […] sodium chloride solution. The test substances are pre-pipetted into microtitre plates in amounts of 8 μl per well. The pre-adjusted organism suspensions are diluted 1:100 in CASO broth and are added in amounts of 192 μl per well to the test substances. The test batches are incubated for 48 hours at 37° C. The incubation, the growth is determined on the basis of the turbidity of the test batches (optical density) at 620 nm in a microplate reader. The minimum inhibitory concentration (MIC value) is the concentration of substance at which (compared to the growth of the control) an appreciable inhibition of growth (≦20% growth) of the test organisms is observed. Three microtitre plates are used for each test organism and substance concentration. All the substances are tested in duplicate.

[2] = system: Staphylococcus aureus ATCC 9144 (=SA)
Method: as §1

[3] = system: Candida albicans ATCC 10231 (=CA)
Method: as §1

[4] = system: Escherichia coli NCTC 8196 (=EC)
Method: as §1

| SMILES | MIC PA [1] | MIC SA [2] | MIC CA [3] | MIC EC [4] |
| --- | --- | --- | --- | --- |
| CCCCCCCCCCCCCCNc1cc(C)nc(C2CC2)n1 [compound 80] | >120 | <3.75 | 7.5 | 7.5 |
| CCCCCCCCCCNc1cc(C)nc(-c2ccc(-c3ccccc3)cc2)n1 [compound 97] | >120 | 7.5 | 15 | 15 |
| CCCCCCNc1cc(C)nc(-c2ccccc2)n1 [compound 111] | >120 | 7.5 | 60 | 120 |
| CCCCC(CC)CNc1cc(C)nc(-c2ccncc2)n1 (stereo not shown) [compound 134] | >120 | 7.5 | 120 | >120 |
| CCCCCCCCNc1cc(C)nc(-c2ccc(C)cc2)n1 [compound 66] | >120 | <3.75 | 30 | 30 |
| CCCCCCCCCCCCNc1cc(C)nc(-c2csc(C)n2)n1 [compound 94] | >120 | <3.75 | 7.5 | 15 |
| Cc1cc(NC(C)CC(C)C)nc(-c2ccccc2)n1 (stereo not shown) [compound 141] | >120 | 120 | >120 | >120 |
| Cc1cc(NC(C)CC(C)C)nc(-c2ccncc2)n1 (stereo not shown) [compound 142] | >120 | 30 | 120 | >120 |
| CCCCC(CC)CNc1cc(C)nc(-c2cccs2)n1 (stereo not shown) [compound 132] | >120 | 60 | >120 | >120 |
| CCCCNc1cc(C)nc(-c2cccnc2)n1 [compound 32] | >120 | 60 | 60 | 120 |
| CCCCCCNc1cc(C)nc(-c2ccc(-c3ccccc3)cc2)n1 [compound 108] | >120 | 30 | >120 | >120 |
| CCCCCCCCCCCCCCNc1cc(C)nc(-c2csc(C)n2)n1 [compound 82] | >120 | <3.75 | 7.5 | 15 |
| CCCCCCCCCCNc1cc(C)nc(-c2ccc(-c3ccccc3)cc2)n1 [compound 96] | >120 | 15 | 15 | 30 |
| CCCCCCNc1cc(C)nc(-c2cccc(N)c2)n1 [compound 114] | >120 | 15 | 30 | >120 |
| CCCC(C)Nc1cc(C)nc(-c2cccnc2)n1 (stereo not shown) [compound 40] | >120 | 60 | 120 | >120 |
| CCCCN(CCCC)c1cc(C)nc(-c2csc(C)n2)n1 [compound 122] | >120 | 30 | 120 | >120 |
| CCCCN(CCCC)c1cc(C)nc(-c2cccnc2)n1 [compound 54] | >120 | 15 | 120 | >120 |
| CCCCCCNc1cc(C)nc(-c2ccc(C)cc2)n1 [compound 115] | >120 | 7.5 | 120 | >120 |
| Cc1cc(NCc2ccccn2)nc(-c2cccnc2)n1 [compound 49] | >120 | 120 | >120 | >120 |

| SMILES | MIC PA [1] | MIC SA [2] | MIC CA [3] | MIC EC [4] |
| --- | --- | --- | --- | --- |
| CCCCCCCCCCCCCCNc1cc(C)nc(-c2cccs2)n1 [compound 73] | >120 | <3.75 | <3.75 | 7.5 |
| CNCCN(C)c1nc(-c2ccccc2)nc(-c2ccc(C)cc2)c1-c1ccccc1 [compound 10] | >120 | 15 | 30 | 30 |
| CCCCCCNc1cc(C)nc(-c2cccs2)n1 [compound 110] | >120 | 60 | 120 | >120 |
| CCCCCCNc1cc(C)nc(-c2ccncc2)n1 [compound 112] | >120 | 15 | 30 | 120 |
| COCC(C)Nc1cc(C)nc(-c2cccnc2)n1 (stereo not shown) [compound 43] | >120 | 60 | 120 | >120 |
| CCCCCCCCCCNc1cc(C)nc(-c2ccncc2)n1 [compound 100] | >120 | 15 | 15 | 15 |
| CCCCCCCCCCCCNc1cc(C)nc(-c2ccc(C)c(F)c2)n1 [compound 95] | >120 | 15 | 15 | 30 |
| CCCCC(CC)CNc1cc(C)nc(C(C)C)n1 (stereo not shown) [compound 138] | >120 | 30 | 30 | 60 |
| Cc1ccc(-c2nc(-c3ccccc3)nc(NCCCN3CCN(CCCN)CC3)c2-c2ccccc2)cc1 [compound 14] | 30 | 15 | 15 | 3.75 |
| CCCCCCCCCCCCNc1cc(C)nc(-c2cccc(N)c2)n1 [compound 90] | >120 | 7.5 | <3.75 | 15 |
| CCCCCCCCNc1cc(C)nc(-c2ccc(C(C)(C)C)cc2)n1 [compound 58] | >120 | 15 | 60 | 120 |
| CCCCN(CCCC)c1cc(C)nc(-c2ccncc2)n1 [compound 121] | >120 | 30 | >120 | >120 |
| FC(F)(F)c1cccc(-c2nc(-c3ccccc3)nc(N3CCNCC3)c2-c2ccccc2)c1 [compound 16] | >120 | 7.5 | 15 | 15 |
| NCCCCCCCCCCCCNc1cc(-c2cccc3ccccc23)ncn1 [compound 29] | >120 | 15 | 30 | 30 |
| CCCCCCCCCCCCNc1cc(C)nc(C(C)C)n1 [compound 93] | >120 | <3.75 | 7.5 | 15 |
| CCCCCCCCCCCCCNc1cc(C)nc(-c2cccnc2)n1 [compound 37] | >120 | 7.5 | 7.5 | 15 |
| CCCCCCNc1cc(C)nc(-c2ccc(N)cc2)n1 [compound 120] | >120 | 30 | 30 | 120 |
| Cc1cc(NCCc2ccccc2)nc(-c2cccnc2)n1 [compound 48] | >120 | 30 | 60 | >120 |
